# From patent US8207154B2, “Catatonic bacteriochlorophyll derivatives” (Yeda Research and Development Co., Ltd., priority 2005, dated 2012)
# Like-named read-outs stand apart in the source and are kept apart here.
# Key:
# [1] = target: St. albus; assay: Phototoxicity on Gram-positive bacteria, colony counting; format: cell-based; conditions: 1 h incubation, illuminated 15 min at 70 mW/cm^2; read-out: Kd (phototoxicity)
# Experimental: (§1) (ii) Bacterial cultures. Bacteria of strains St. albus and E. coli XL-1 were cultured in liquid LB medium (E. coli in LB containing 12.5 μg tetracyclin/ml) to a final density of OD600 nm=0.5-0.9 (1 OD=8×10^8 bacteria/ml). The bacteria were spun down (4000×g, 5 min.) and resuspended in PBS.
# (§2) (b) Bacterial. To determine the photodynamic efficacy, bacteria were diluted to aliquots of 300 μl containing about 10^7 bacteria, and incubated with increasing concentrations of sensitizer in plastic test tubes in the dark for 1 h at room temperature, and then illuminated at 70 mW/cm^2 for 15 min. Samples of the treated bacteria cultures were subsequently plated at different dilutions (50-200 bacteria/plate) on LB agar and cultured for 24 h at 37° C. for determination of bacterial survival by colony counting. Triplicate determinations were conducted and representative experiments are shown.
# (§3) The phototoxicity of positively-charged compound 5 was tested on Gram-positive St. albus and Gram-negative E. coli bacteria in comparison to the negatively-charged Pd 3^1-oxo-15-methoxycarbonylmethyl-Rhodobacteriochlorin 13^1-(2-sulfoethyl)amide dipotassium salt (described in PCT/IL03/00973). Bacteria were incubated with increasing concentrations of the sensitizers for 1 h and illuminated or kept in the dark. […] Gram-positive bacteria St. albus, was 100 times more sensitive to compound 5 than Gram-negative E. coli. No phototoxicity was observed when bacteria were incubated and treated with the same sensitizers' concentration range without illumination (dark controls).
# [2] = tested on: E. coli; assay: Phototoxicity on Gram-negative bacteria, colony counting; format: cell-based, E. coli XL-1; conditions: 1 h incubation, illuminated
# Experimental: as §1, §2, §3
# [3] = Octanol/water partition ratio; format: physicochemical
# From the text: Optical absorption in water, λ (relative absorption): 753 (1.00), 519 (0.30), 354 (1.25) nm. Octanol/water partition ratio is 40/60. ESI-MS (+): 413.62 ([M-2×citrate]/2). Octanol/water partition ratio is 50/50. ESI-MS (+): 455.89 ([M-2×citrate]/2). Octanol/water partition ratio is 75/25.
# [4] = tested on: H5V cells; assay: Phototoxicity assay (PDT efficacy at two incubation times), neutral red survival; format: cell-based, mouse; conditions: then 10 min illumination, 12 J/cm^2
# Experimental: H5V cells (40×10^3/well) were cultured in 96-well plates for 24 h to ˜80% confluence. To determine phototoxicity, the culture medium was replaced with 100 μl/well medium, in the absence or presence of 10^−8 to 10^−6 M sensitizer, and incubated in the dark for 15 min or 3 h in the culture incubator. The plates (PDT group) were then placed in the light field at room temperature and illuminated from the bottom for 10 min (800>λ>650 nm, 12 J/cm^2). After illumination, the medium was changed to fresh culture medium. The cultures were then placed in the culture incubator and cell survival was determined 24 h later, using the neutral red survival assay described below.
# Following 24 h post PDT the culture medium in the wells was replaced with 100 μl fresh medium containing 40 μg/ml neutral red. The plate was incubated for 1.5 h in a dark culture incubator. The medium was aspirated and the cells washed with 100 μl of solution containing 1% CaCl2 and 0.5% formaldehyde, which removes the unincorporated dye and fixes the cells to the substratum. The dye was then extracted from the cells into the supernatant upon addition of 100 μl 1% glacial acetic acid in 50% ethanol. After 1-2 min at room temperature, the optical density of the wells was determined in a microplate spectrophotometer using a 570 nm filter. After subtraction of assay blanks, net optical density was computed as the average value of triplicate determinations. Cell survival was calculated as the percent of the dye accumulated in the untreated control. To determine cell survival data was plotted against sensitizer concentration. These curves were then used to calculated LD50 values.
# Following synthesis, the compounds described in the Examples 23 to 75 above were purified, divided into equal aliquots and lyophilized for storage (desiccated at −20° C.). The exact material content was determined by HPLC-diode array detection, and the PDT efficacy was evaluated at two incubation times as described in the experimental section.
# [5] = 15 min incubation in the dark, read-out: IC50 15 min
# [6] = 3 h incubation in the dark, read-out: IC50 3 hours
Compound,phototoxic killing concentration [1],effectiveness against Gram-negative E. coli [2],Octanol/water partition ratio [3],"IC50 [4, 5]","IC50 [4, 6]"
"CCC1C2=Cc3c(C)c(C(=O)NCCS(=O)(=O)[O-])c4[n]3[Pd][n]3c(c(C)c(C(C)=O)c3=CC(=N2)C1C)=CC1=NC(=C4CC(=O)OC)C(CCC(=O)[O-])C1C.[K+].[K+] (centres unmarked) [Pd 3^1-oxo-15-methoxycarbonylmethyl-Rhodobacteriochlorin 13^1-(2-sulfoethyl)amide dipotassium salt, reference compound]",300 nM,not against Gram-negative E. coli,–,–,–
"3^1-Oxo-15-methoxycarbonylmethyl-Rhodobacteriochlorin 13^1,17^3-di(3-N^3-trimethylammoniumpropyl)amide dicitrate salt [Compound 7]",–,–,50/50,–,–
"CCC1c2cc3[n-]c(c(CC(=O)OC)c4nc(cc5[n-]c(cc(n2)C1C)c(C(C)=O)c5C)C(C)C4CCC(=O)NCCN1CCNCC1)c(C(=O)NCCN1CCNCC1)c3C.[Pd+2] (centres unmarked) [Compound 41, Palladium 3^1-oxo-15-methoxycarbonylmethyl-Rhodobacteriochlorin-13^1, 17^3-di(2-piperazino-N-ethyl)amide]",–,–,–,1130 nM,460 nM
"CC[C@H]1C2=NC(=Cc3c(C(C)=O)c(C)c4[n]3[Pd][n]3c(c(C)c(C(=O)NCCNCCN(CC)CC)c3=C(CC(=O)OC)C3=NC(=C4)[C@@H](C)[C@@H]3CCC(=O)O)=C2)[C@@H]1C [Compound 31, Palladium 3^1-oxo-15-methoxycarbonylmethyl-Rhodobacteriochlorin-13^1-(2-[(2-N^2-diethylaminoethyl)amino]ethyl)amide]",–,–,–,2600 nM,600 nM
"CC[C@H]1C2=NC(=Cc3c(C(C)=O)c(C)c4[n]3[Pd][n]3c(c(C)c(C(=O)NCC(O)CO)c3=C(CC(=O)OC)C3=NC(=C4)[C@@H](C)[C@@H]3CCC(=O)NCCNc3ccccn3)=C2)[C@@H]1C (some centres unmarked) [Compound 56, Palladium 3^1-oxo-15-methoxycarbonylmethyl-Rhodobacteriochlorin-13^1-(2,3-dihydroxypropyl)amide-17^3-(2-N-(2′-pyridyl)aminoethyl)amide]",–,–,–,790 nM,320 nM
"CC[C@H]1C2=NC(=Cc3c(C(C)=O)c(C)c4[n]3[Pd][n]3c(c(C)c(C(=O)NCCN(C)C)c3=C(CC(=O)OC)C3=NC(=C4)[C@@H](C)[C@@H]3CCC(=O)O)=C2)[C@@H]1C [Compound 25, Palladium 3^1-oxo-15-methoxycarbonylmethyl-Rhodobacteriochlorin-13^1-(2-N^2-dimethylaminoethyl)amide]",–,–,–,1100 nM,750 nM
"CC[C@H]1C2=NC(=Cc3c(C(C)=O)c(C)c4[n]3[Pd][n]3c(c(C)c(C(=O)NCCCCN)c3=C(CC(=O)OC)C3=NC(=C4)[C@@H](C)[C@@H]3CCC(=O)NCCCCN)=C2)[C@@H]1C [Compound 35, Palladium 3^1-oxo-15-methoxycarbonylmethyl-Rhodobacteriochlorin-13^1, 17^3-di(4-aminobutyl)amide]",–,–,–,1230 nM,210 nM
"CCC1c2cc3[n-]c(c(CC(=O)OC)c4nc(cc5[n-]c(cc(n2)C1C)c(C(C)=O)c5C)C(C)C4CCC(=O)NCCCNCCCN)c(C(=O)NCCCNCCCN)c3C.[Pd+2] (centres unmarked) [Compound 42, Palladium 3^1-oxo-15-methoxycarbonylmethyl-Rhodobacteriochlorin-13^1, 17^3-di-(3-[(3-aminopropyl)amino]propyl)amide]",–,–,–,680 nM,280 nM
"CC(=O)O.CC[C@H]1C2=NC(=Cc3c(C(C)=O)c(C)c4[n]3[Pd][n]3c(c(C)c(C(=O)NCCCNC)c3=C(CC(=O)OC)C3=NC(=C4)[C@@H](C)[C@@H]3CCC(=O)NCC(O)CO)=C2)[C@@H]1C (some centres unmarked) [Compound 64, Palladium 3^1-oxo-15-methoxycarbonylmethyl-Rhodobacteriochlorin-13^1-(3-N-methylaminopropyl)amide-17^3-(2,3-dihydroxypropyl)amide]",–,–,–,560 nM,170 nM
Palladium 3^1-oxo-15-methoxycarbonylmethyl-Rhodobacteriochlorin-13^1-(2-N^2-dimethylaminoethyl)amide-17^3-(2-(2-hydroxyethylamino)ethyl)amide [Compound 70],–,–,–,550 nM,160 nM
"CC[C@H]1C2=NC(=Cc3c(C(C)=O)c(C)c4[n]3[Pd][n]3c(c(C)c(C(=O)NCCN(CCN)CCN)c3=C(CC(=O)OC)C3=NC(=C4)[C@@H](C)[C@@H]3CCC(=O)NCCN(CCN)CCN)=C2)[C@@H]1C [Compound 43, Palladium 3^1-oxo-15-methoxycarbonylmethyl-Rhodobacteriochlorin-13^1,17^3-di([2-bis(2-aminoethyl)amino]ethyl)amide]",–,–,–,600 nM,180 nM
Palladium 3^1-oxo-15-methoxycarbonylmethyl-Rhodobacteriochlorin-13^1-(2-N^3-trimethylammoniumethyl)amide acetate (salt) [Compound 24],–,–,–,2400 nM,1200 nM
"CC[C@H]1C2=NC(=Cc3c(C(C)=O)c(C)c4[n]3[Pd][n]3c(c(C)c(C(=O)NCCNCCN)c3=C(CC(=O)OC)C3=NC(=C4)[C@@H](C)[C@@H]3CCC(=O)NCCNCCN)=C2)[C@@H]1C [Compound 38, Palladium 3^1-oxo-15-methoxycarbonylmethyl-Rhodobacteriochlorin-13^1, 17^3-di-(2-[(2-aminoethyl)amino]ethyl)amide]",–,–,–,440 nM,160 nM
"CC[C@H]1C2=NC(=Cc3c(C(C)=O)c(C)c4[n]3[Pd][n]3c(c(C)c(C(=O)NCC(O)CO)c3=C(CC(=O)OC)C3=NC(=C4)[C@@H](C)[C@@H]3CCC(=O)NCCN)=C2)[C@@H]1C (some centres unmarked) [Compound 47, Palladium 3^1-oxo-15-methoxycarbonylmethyl-Rhodobacteriochlorin-13^1-(2,3-dihydroxypropyl)amide-17^3-(2-aminoethyl) amide]",–,–,–,450 nM,250 nM
"CCC1C2=Cc3c(C)c(C(=O)NCCNc4ccccn4)c4[n]3[Pd][n]3c(c(C)c(C(C)=O)c3=CC(=N2)C1C)=CC1=NC(=C4CC(=O)OC)C(CCC(=O)NCC(O)CO)C1C (centres unmarked) [Compound 57, Palladium 3^1-oxo-15-methoxycarbonylmethyl-Rhodobacteriochlorin-13^1-(2-N-(2′-pyridyl)aminoethyl)amide-17^3-(2,3-dihydroxypropyl)amide]",–,–,–,1330 nM,600 nM
